Measurements: US20060276440A1, “Treatment of inflammatory disorders” (priority 2005, published 2006)
Read-outs that look alike come from different tables or passages of the source.

Tests used:
[1] = system: AP-1 (c-fos, c-Jun) and Runx2; assay: mRNA of transcriptional factors AP-1 (c-fos, c-Jun) and Runx2 by Taqman in SW1353 cells; type: cell-based, human; details: 20 nM; OSM/IL-1-stimulated or unstimulated SW1353; 2 hr or 14 hr
Description: Total RNA was isolated using RNAzol™ B (TEL-TEST Inc., Friendswood, Tex.). SuperScript™ first-strand synthesis system (Invitrogen) was used for cDNA generation. All oligonucleotide primers and fluorescent-labeled TaqMan probes were from Applied Biosystems (Foster City, Calif.). Relative quantization of gene expression was performed using the MX3000p real-time PCR instrument (Stratagene, La Jolla, Calif.). PCR reactions for all samples were performed in triplicates using 50 ng of cDNA. To compensate for the variation in the total cDNA, all readouts were normalized to an endogenous control (18S ribosomal RNA). Thermocycler conditions comprised an initial holding at 50° C. for 2 min, then 95° C. for 10 min, followed by a 2-step TaqMan PCR program consisting of 95° C. for 15 seconds, and 60° C. for 60 seconds for 40 cycles. The relative changes in gene expression were quantified as described in Applied Biosystems User Bulletin NO. 2 (P/N 4303859).
The cellular and molecular mechanisms by which CA4 repressed pro-MMP-13 production, using SW1353 as the model system were investigated. […] The pathways that mediate OSM and IL-1 signal transduction were then examined. […]

MMP-13 = assay: IL-1/OSM-stimulated pro-MMP-13 production in SW-1353 cells (ELISA); type: cell-based, human; details: Homo sapiens
From the text: To test the compounds identified in the preliminary reporter (luciferase) activity […]® line 4A1 screen for inhibition of OSM signaling in a more physiologically relevant environment, a human cell line involved in an inflammatory disease was adapted. The human cartilage cell line SW-1353 was selected.
In the human cartilage cell line SW-1353, while IL-1 is believed to activate expression of collagenases to a small degree and OSM is believed to have no effect on collagenase expression, a combination of IL-1 and OSM is believed to lead to a synergistic activation of collagenases to much higher levels (S. Cowell et al., Biochem J 331 (Pt 2), 453 (Apr. 15, 1998). Regulation of MMP-13 in SW-1353 cells is, therefore, believed to provide a biomarker which can be used to monitor IL-1/OSM-mediated signal transduction events in secondary assays.
The same supernatants of culture media used in the primary screen were assayed for IL-1/OSM-stimulated pro-MMP-13 production and MMP-2 production by enzyme-linked immunosorbent assay (ELISA).
For matrix metalloproteinase (MMP) measures, SW1353 cells were grown to confluence in 24 well plates, washed in DMEM (with Ham's F12) and placed in 500 ul of serum free DMEM/F-12 with 0.2% lactalbumin hydrosylate with and without OsM/IL-1. After 24 hrs, supernatants were collected and the amounts of proMMP13, totalMMP2, and proMMP1 were measured using Quantikine® ELISA kit for human MMPs (R & D systems, Minneapolis, Minn.). All MMP measures were normalized to viable cell numbers based on a tetrazolium (MTS) colorimetric measure (Promega, Madison, Wis.).

With COc1ccc(/C=C\c2cc(OC)c(OC)c(OC)c2)cc1O [Combretastatin A4 (1), (Z)-5-(3,4,5-trimethoxystyryl)-2-methoxyphenol] the “messenger RNA levels of AP-1 (c-fos, c-Jun) and Runx2” value [1] was “none of these factors as detected by Taqman were significantly altered”, the IC50 (MMP-13; SW1353, SW-1353, IL-1/OSM-stimulated, secondary screen (Example 2), read-out: IC50, inhibition of MMP-13 (pro-MMP-13) production) was 2 nM and the IC50 (MMP-13; SW1353 cells, mean (Examples 8, 10), read-out: IC50 values by pro-MMP-13 (OSM/IL-1-mediated production)) was 5.6 ± 1.3 nM.
